Test results taken from PMC12116762, “Topobexin targets the Topoisomerase II ATPase domain for beta isoform-selective inhibition and anthracycline cardioprotection” (Nature Communications, 2025).

Legend:
[1] = test system: neonatal rat ventricular cardiomyocytes (NVCM); test: Inherent toxicity (LDH release) in NVCM; type: cell-based; design: key to LDH release (inherent toxicity), mean of independent replicates: % of total LDH activity; settings: NVCM; for LTC = lowest toxic concentration: compound alone, n=4; for LDH release (inherent toxicity), mean of independent replicates: Suppl.Fig.4
Experimental: (§1) The protective effects of the BNS-22 and newly prepared compounds were evaluated using primary cultures of neonatal rat cardiomyocytes isolated in house as previously described. Hearts isolated from 1- to 3-day-old Wistar rats were minced in buffer (1.2 mM MgSO4 · 7H2O, 116 mM NaCl, 5.3 mM KCl, 1.13 mM NaH2PO4 · H2O, 20 mM 4-(2-hydroxyethyl)-1-piperazine ethanesulfonic acid (HEPES), glucose 1 mg/mL) on ice, then serially digested (20 min, six repetitions) at 37 °C with collagenase type II (60 U/mL, Gibco). After 2 h pre-plating in a 150 mm Petri dish per approximately 20 hearts to minimize non-myocyte contamination, cells were plated in 24-well gelatin-coated plates at a density of 400,000 cells per well. Cells were cultured at 37 °C and 5% CO2 in Dulbecco’s modified Eagle medium (DMEM)/ F12 culture medium supplemented with 10% horse serum, 5% fetal bovine serum (FBS), 20 mM sodium pyruvate, 50 U/mL penicillin, and 50 μg/mL streptomycin. Freshly isolated cells were left for 40 h to attach and form a culture of spontaneously beating cardiomyocytes, then the medium was changed to DMEM/F12 medium supplemented with 5% fetal bovine serum, 20 mM sodium pyruvate, 50 U/mL penicillin, and 50 μg/mL streptomycin. For the experiments, the medium was changed to serum- and pyruvate-free DMEM/F12 with 50 U/mL penicillin and 50 μg/mL streptomycin. Cardiomyocytes were pretreated with BNS-22 or new compounds for 3 h and then coincubated with DAU (1.2 µM) for another 3 h. After the DAU treatment period, the culture medium was exchanged for the drug-free DMEM/F12 with 50 U/mL penicillin and 50 μg/mL streptomycin for the 48 h follow-up. Experiments to determine the inherent toxicity of each compound studied follow the same schedule, only no DAU was added. Subsequently, the culture medium sample was taken from each well for evaluation of lactate dehydrogenase (LDH) activity. The total LDH activity of each sample for normalization was measured after 1 h of incubation at 37 °C in lysis buffer (0.1 M potassium phosphate, 1% Triton X-100, 1 mM dithiothreitol (DTT), 2 mM EDTA, pH 7.8, 15 min in RT). All samples were immediately analyzed in Tris HCl buffer (pH 8.9) containing 35 mM lactic acid and 5 mM NAD^+. The rate of NAD^+ reduction was monitored spectrophotometrically at 340 nm for 2 min. The slope of the linear region was calculated, and the results were expressed as a percentage of the total LDH. Each presented data point was obtained from distinct sample.

[2] = test system: neonatal rat ventricular cardiomyocytes (NVCM); test: Protection against DAU-induced cytotoxicity (LDH release) in NVCM; type: cell-based; design: key to Suppl.Fig.3 DAU-induced cytotoxicity (LDH release) in NVCM, mean of independent replicates / LDH release (DAU-induced cytotoxicity), mean of independent replicates: % of total LDH activity
Experimental: as §1

Row | SMILES | LTC = lowest toxic concentration [1] [µM] | LDH release (inherent toxicity), mean of independent replicates ([1]; compound alone 0.1 µM) | LDH release (inherent toxicity), mean of independent replicates ([1]; compound alone 1 µM) | LDH release (inherent toxicity), mean of independent replicates ([1]; compound alone 10 µM) | LDH release (inherent toxicity), mean of independent replicates ([1]; compound alone 30 µM) | LDH release (inherent toxicity), mean of independent replicates ([1]; compound alone 100 µM) | minimal effective concentration ([2]; Rattus norvegicus, Cardiomyocyte, NVCM, protection against DAU 1.2 µM, n=4, read-out: LEC = lowest effective concentration) [µM] | Suppl.Fig.3 DAU-induced cytotoxicity (LDH release) in NVCM, mean of independent replicates ([2]; compound 0.1 µM + DAU 1.2 µM) | Suppl.Fig.3 DAU-induced cytotoxicity (LDH release) in NVCM, mean of independent replicates ([2]; compound 1 µM + DAU 1.2 µM) | Suppl.Fig.3 DAU-induced cytotoxicity (LDH release) in NVCM, mean of independent replicates ([2]; compound 10 µM + DAU 1.2 µM) | Suppl.Fig.3 DAU-induced cytotoxicity (LDH release) in NVCM, mean of independent replicates ([2]; compound 30 µM + DAU 1.2 µM) | Suppl.Fig.3 DAU-induced cytotoxicity (LDH release) in NVCM, mean of independent replicates ([2]; compound 100 µM + DAU 1.2 µM) | LDH release (inherent toxicity), mean of independent replicates ([1]; compound alone 3 µM) | Suppl.Fig.3 DAU-induced cytotoxicity (LDH release) in NVCM, mean of independent replicates ([2]; compound 3 µM + DAU 1.2 µM)
1 | CCCCc1cc(=O)oc2c(C(=O)N3CCCc4ccccc43)c(OC)cc(OC)c12 [1d] | 30 | 14.3468 | 13.6854 | 20.4098 | 50.8474 | 76.157 | 1 | 44.1431 | 30.0603 | 34.1459 | 74.3781 | 88.2455 |  | 
2 | Cc1cc(=O)oc2c(C(=O)N3CCCc4ccccc43)c(O)ccc12 [2a] |  |  |  | 13.7502 | 15.9605 | 17.1189 |  |  |  | 37.2223 | 39.137 | 42.8636 |  | 
3 | CCc1cc(=O)oc2c(C(=O)N3CCCc4ccccc43)c(O)ccc12 [2b] |  |  |  | 17.3516 | 18.0926 | 18.5764 |  |  |  | 31.7392 | 34.9042 | 31.3386 |  | 
4 | COc1ccc2c(C)cc(=O)oc2c1C(=O)N1CCCc2ccccc21 [3a] | > 10 |  | 18.1168 | 15.937 |  |  |  |  | 38.7802 | 36.7927 |  |  | 15.6047 | 37.7536
5 | CCc1cc(=O)oc2c(C(=O)N3CCCc4ccccc43)c(OC)ccc12 [3b] | > 10 |  | 16.0681 | 15.3649 |  |  |  |  | 33.4469 | 31.9857 |  |  | 15.619 | 35.1015
